In paper PMC5146284, “Molecular imaging with engineered physiology” (Nature Communications, 2016):
Like-named read-outs stand apart in the source and are kept apart here. Positions of bridges follow the written chain, without caps; N, C: chain ends. No end group written: not given here. *: point of attachment. long‑chain biotin = O=C(CCCC[C@@H]1SC[C@@H]2NC(=O)N[C@@H]21)NCCCCCC(=O)*; cfSGFP2 = cysteine-free variant of the GFP

What was measured:
[1] = biological target: T1, RAMP1/CLR CGRP receptor heterodimer in HEK293FT reporter cells (Homo sapiens, UniProt O60894+Q16602); test: Luminescent cAMP (GloSensor) cell-based bioassay for CGRP receptor activation; conditions: for Log(EC50), Cleaved: after protease: (1) 5 ng/μl human FAP, (2) 0.1 U/μl TEV, (3) 2 pg/μl EK light chain, (4) 23 ng/μl, (5) 11.5 ng/μl human CASP3; for Log(EC50), Cleaved / Log(EC50), Uncleaved: s.e.m. <0.1 (n=7); for Log(EC50), Uncleaved: incubated without protease
T1 construct: HA-CALCRL: Human calcitonin receptor-like receptor preceded by the H. influenza; Human receptor-activity modifying protein 1 preceded by the H. influenza; hemagglutinin signal peptide (heterologous, replaces the native one) (N); expressed in transfected cells

[2] = test system: rat brain (thalamus); nNOS; test: MRI of CGRP response before and after systemic nNOS inhibition with L-NAME; format: in vivo, rat (Sprague-Dawley)
Procedure: (e) Dissociation of CGRP-induced artificial haemodynamic signals from nitric oxide-mediated signalling. Left, haemodynamic responses observed by imaging upon unilateral CGRP injection into the left thalamus, before L-NAME delivery (-LN, top), or into the right thalamus, after 50 mg kg^−1 intravenous L-NAME infusion (+LN, bottom). […] Error bars throughout this figure denote s.e.m. values (n=4).
High resolution T2-weighted anatomical scans of each animal were obtained using a rapid acquisition with relaxation enhancement (RARE) pulse sequence with echo time (TE)=44 ms, recycle time (TR)=2,500 ms, RARE factor=8, spatial resolution=100 × 100 × 500 μm, and matrix size=128 × 128 with seven slices. Haemodynamic contrast image series were acquired using a gradient echo echo planar imaging (EPI) pulse sequence with TE=34 ms, TR=4,000 ms, spatial resolution=300 × 300 × 500 μm, and matrix size=64 × 64 with seven slices. To parallel the optical imaging experiments, 5 min of baseline measurement with 4 s per image were acquired before probe infusion. Following this baseline period, while continuously collecting EPI scans, infusion pumps were remotely turned on to commence intracranial injection (in the parenchymal tissue) of 1 μl aliquots of CGRP or control solutions at the rate of 0.1 μl min^−1 through the cannulae. […]
MRI data was processed and analysed using the AFNI software package[47]. […]

[3] = test system: CASP3, in rat brain (thalamus); conditions: for significant haemodynamic activation / voxel correlation with vs without CASP3: 100 nM sensor, BOLD MRI
Procedure: CASP3 sensor aliquots (100 nM) were injected at 0.1 μl min^−1 for 10 min in the presence or absence of CASP3 enzyme (2.3 ng μl^−1) in paired injections into rat thalamus.
High resolution T2-weighted anatomical scans of each animal were obtained using a rapid acquisition with relaxation enhancement (RARE) pulse sequence with echo time (TE)=44 ms, recycle time (TR)=2,500 ms, RARE factor=8, spatial resolution=100 × 100 × 500 μm, and matrix size=128 × 128 with seven slices. Haemodynamic contrast image series were acquired using a gradient echo echo planar imaging (EPI) pulse sequence with TE=34 ms, TR=4,000 ms, spatial resolution=300 × 300 × 500 μm, and matrix size=64 × 64 with seven slices. To parallel the optical imaging experiments, 5 min of baseline measurement with 4 s per image were acquired before probe infusion. Following this baseline period, while continuously collecting EPI scans, infusion pumps were remotely turned on to commence intracranial injection (in the parenchymal tissue) of 1 μl aliquots of CGRP or control solutions at the rate of 0.1 μl min^−1 through the cannulae. […] For the experiments of Fig. 3d, CGRP-based CASP3 sensors (100 nM) were co-injected simultaneously, either with or without comixed CASP3 enzyme (1.15 ng μl^−1).
MRI data was processed and analysed using the AFNI software package[47]. The AFNI 3dAllineate command was used to align each animal's EPI data set to the corresponding RARE anatomical image. Each animal's image data were then aligned to a reference MRI rat atlas[48]. To identify voxels with significant increases or decreases in BOLD signal, we used the 3dDeconvolve routines in AFNI to correlate individual or group level voxel-level signal changes with the injection epochs. For correlation analysis, injection epochs were modeled by ‘box car' regressors with a single stimulus block synchronized with the onset and offset of infusion, without delays. […] The cluster size and P value threshold were objectively chosen, based on AFNI's AlphaSim routine, to provide a type I error rate of 5% after correction for multiple comparisons[49][50]; this was appropriate for robust hypothesis testing on individual voxels throughout the entire imaging volume. […] Time courses were obtained by averaging MRI signal over 1.5 × 1.5 mm regions of interest defined around cannula tip locations in individual animals' data sets. The peak percent signal change was determined by comparing signal values during baseline and infusion conditions. Additional statistical analysis was performed in Matlab.

caspase-3 (CASP3) = test: Proteolytic cleavage by caspase-3 (SDS-PAGE or MALDI); format: biochemical, human; conditions: 10 µM sensor, 2 h, 37 °C; SDS-PAGE (sensor 4) or MALDI (sensor 5)
Procedure: Proteolytic cleavage reactions
Supplementary Fig. 4. Proteolytic cleavage of candidate sensors and assessment by bioas-say. (a-e) Cleavage reaction products after incubation of 10 µM sensor with or without enzyme for 2 h at 37 °C. (a) MALDI mass spectrum of sensor (1) after incubation with or without FAP […]
(b) SDS-PAGE analysis of sensor
(c) SDS-PAGE analysis of sensor (3) after incubation with different concentrations of EK light […]
(d) SDS-PAGE analysis of sen- […]
and liberation of free CGRP. (f-k) Dose-response curves of uncleaved and cleaved sensors in […]
(f) Dose-response curves for Sensors (2-4) at final assay concentrations up to 10 uM (addition of 10 µL of 100 µM solution to 90 µL medium per well in bioassay) show no receptor activation by uncleaved GFP-linker-CGRP-G sensors even at 10-fold higher concentrations than were used in cleavage assays (g-k). (g-k) Dose-response curves for reaction products from (a-e). Error bars in (f-k) denote SD of measurements performed in triplicate.
(1 picture or pasted object on this page, not shown here)

T1 sequence (Q16602 23-461): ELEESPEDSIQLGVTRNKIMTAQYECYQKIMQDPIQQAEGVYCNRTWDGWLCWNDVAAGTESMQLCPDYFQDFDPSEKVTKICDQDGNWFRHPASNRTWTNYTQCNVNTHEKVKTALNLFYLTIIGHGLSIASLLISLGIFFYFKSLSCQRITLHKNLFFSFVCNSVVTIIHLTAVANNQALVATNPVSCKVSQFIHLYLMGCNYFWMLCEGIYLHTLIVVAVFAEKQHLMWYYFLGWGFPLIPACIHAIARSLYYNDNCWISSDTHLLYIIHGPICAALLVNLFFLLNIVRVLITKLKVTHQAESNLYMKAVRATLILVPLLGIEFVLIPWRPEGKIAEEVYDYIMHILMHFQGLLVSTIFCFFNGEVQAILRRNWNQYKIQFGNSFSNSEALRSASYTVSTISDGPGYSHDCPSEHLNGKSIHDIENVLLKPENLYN
T1 sequence (O60894 27-148): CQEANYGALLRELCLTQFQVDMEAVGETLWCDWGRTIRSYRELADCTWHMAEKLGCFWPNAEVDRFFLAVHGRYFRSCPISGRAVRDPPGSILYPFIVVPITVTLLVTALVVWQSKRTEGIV

CC(C)C[C@H](NC(=O)CNC(=O)[C@H](C)NC(=O)[C@H](CC(C)C)NC(=O)[C@H](CCCNC(=N)N)NC(=O)[C@H](Cc1c[nH]cn1)NC(=O)[C@@H](NC(=O)[C@@H](NC(=O)[C@@H]1CSSC[C@H](NC(=O)[C@H](C)N)C(=O)N[C@@H](CC(=O)O)C(=O)N[C@@H]([C@@H](C)O)C(=O)N[C@@H](C)C(=O)N[C@@H]([C@@H](C)O)C(=O)N1)C(C)C)[C@@H](C)O)C(=O)N[C@@H](CC(C)C)C(=O)N[C@@H](CO)C(=O)N[C@@H](CCCNC(=N)N)C(=O)N[C@@H](CO)C(=O)NCC(=O)NCC(=O)N[C@H](C(=O)N[C@H](C(=O)N[C@@H](CCCCN)C(=O)N[C@@H](CC(N)=O)C(=O)N[C@@H](CC(N)=O)C(=O)N[C@@H](Cc1ccccc1)C(=O)N[C@H](C(=O)N1CCC[C@H]1C(=O)N[C@H](C(=O)N[C@@H](CC(N)=O)C(=O)N[C@H](C(=O)NCC(=O)N[C@@H](CO)C(=O)N[C@@H](CCCCN)C(=O)N[C@@H](C)C(=O)N[C@@H](Cc1ccccc1)C(=O)NCC(=O)O)C(C)C)[C@@H](C)O)C(C)C)C(C)C)C(C)C [CGRP-G]
EC50 ([1]; C-terminal glycine extension, read-out: 95% CI of EC50 for receptor activation): 2.1 to 3.1 nM | EC50 ([1]; C-terminal glycine extension, read-out: EC50 for receptor activation): 2.5 nM

COC(=O)[C@@H](N)CCCNC(N)=N[N+](=O)[O-] [L-NAME, N-nitro-L-arginine methyl ester]
average increase in baseline brain MRI signal before CGRP infusion ([2]; 50 mg/kg i.v., t-test P=0.11, n=4, not significant): 3.5±2.3% | increase in baseline MRI signal after L-NAME (review reply) ([2]; during first five minutes after L-NAME injection, n=4): < 5%

CC(C)C[C@H](NC(=O)CNC(=O)[C@H](C)NC(=O)[C@H](CC(C)C)NC(=O)[C@H](CCCNC(=N)N)NC(=O)[C@H](Cc1c[nH]cn1)NC(=O)[C@@H](NC(=O)[C@@H](NC(=O)[C@@H]1CSSC[C@H](NC(=O)[C@H](C)NC(=O)[C@@H]2CCCN2C(=O)[C@H](C)N)C(=O)N[C@@H](CC(=O)O)C(=O)N[C@@H]([C@@H](C)O)C(=O)N[C@@H](C)C(=O)N[C@@H]([C@@H](C)O)C(=O)N1)C(C)C)[C@@H](C)O)C(=O)N[C@@H](CC(C)C)C(=O)N[C@@H](CO)C(=O)N[C@@H](CCCNC(=N)N)C(=O)N[C@@H](CO)C(=O)NCC(=O)NCC(=O)N[C@H](C(=O)N[C@H](C(=O)N[C@@H](CCCCN)C(=O)N[C@@H](CC(N)=O)C(=O)N[C@@H](CC(N)=O)C(=O)N[C@@H](Cc1ccccc1)C(=O)N[C@H](C(=O)N1CCC[C@H]1C(=O)N[C@H](C(=O)N[C@@H](CC(N)=O)C(=O)N[C@H](C(=O)NCC(=O)N[C@@H](CO)C(=O)N[C@@H](CCCCN)C(=O)N[C@@H](C)C(=O)N[C@@H](Cc1ccccc1)C(N)=O)C(C)C)[C@@H](C)O)C(C)C)C(C)C)C(C)C [Sensor (1)]
EC50 ([1]; after FAP cleavage, 95% CI, read-out: CI of EC50 following cleavage): 0.013 to 0.02 nM | EC50 ([1]; uncleaved FAP sensor, 95% CI, read-out: CI of EC50 before cleavage): 0.112 to 0.116 nM | EC50 ([1]; uncleaved FAP sensor, read-out: EC50 before cleavage): 0.114 nM

(long-chain biotin)-SG-DEVD-CGRP-amide (disulfide) ({long‑chain biotin}-SGDEVDACDTATCVTHRLAGLLSRSGGVVKNNFVPTNVGSKAF-NH2; disulfide 8-13) [Sensor (5)]
EC50 ([1]; after CASP3 cleavage, 95% CI, read-out: CI of EC50 following cleavage): 0.038 to 0.046 nM | EC50 ([1]; uncleaved CASP3 sensor, 95% CI, read-out: CI of EC50 before cleavage): 5.2 to 6.4 nM | EC50 ([1]; uncleaved CASP3 sensor, read-out: EC50 before cleavage): 5.7 nM

(long-chain biotin)-SG-DEVD-CGRP-amide (disulfide) [Sensor (5)]
peak MRI signal change in the absence of CASP3 ([3]; 100 nM sensor alone, 0.1 μl/min, 10 min, n=4): 1.6±0.5% | mean MRI peak signal change, sensor/CASP3 co-injection ([3]; 100 nM sensor with CASP3, 0.1 μl/min, 10 min, n=4, P=0.02): 7.0±0.9% | significant haemodynamic activation / voxel correlation with vs without CASP3 ([3]; corrected t-test P<0.05, listed as CASP3 sensor): observed in the presence but not the absence of the co-injected protease | significant haemodynamic activation / voxel correlation with vs without CASP3 ([3]; corrected t-test P<0.05, listed as CGRP-based molecular imaging probe (5)): Significant haemodynamic activation can be seen in the presence but not the absence of coadministered 1.15 ng μl^−1 CASP3 | protease sensitivity and post-cleavage potency, ranking ([1]; comparison of sensors): optimum protease sensitivity and post-cleavage potency | cleavage by caspase-3 (caspase-3 (CASP3)): complete cleavage

cfSGFP2-DDDDK-CGRP-G (cfSGFP2-GGSGDDDDKACDTATCVTHRLAGLLSRSGGVVKNNFVPTNVGSKAFG; ends and bridges not checked; also: StrepII tag, position not given here) [Sensor (3), recombinant fusion of cysteine-free GFP, a short linker, enterokinase site and non-amidated CGRP]
Log(EC50), Cleaved [1]: −6.4 | Log(EC50), Uncleaved [1]: <−5

cfSGFP2-DEVD-CGRP-G (cfSGFP2-GGSGDEVDACDTATCVTHRLAGLLSRSGGVVKNNFVPTNVGSKAFG; ends and bridges not checked; also: StrepII tag, position not given here) [Sensor (4), recombinant fusion of cysteine-free GFP, a short linker, caspase-3 site and non-amidated CGRP]
Log(EC50), Cleaved [1]: −6.4 | Log(EC50), Uncleaved [1]: <−5

cfSGFP2-DEVD-CGRP-G [Sensor (4), recombinant fusion of cysteine-free GFP, a short linker, caspase-3 site and non-amidated CGRP]
cleavage by caspase-3 (caspase-3 (CASP3)): near-complete

cfSGFP2-ENLYFQG-CGRP-G (cfSGFP2-GGSGENLYFQGACDTATCVTHRLAGLLSRSGGVVKNNFVPTNVGSKAFG; ends and bridges not checked; also: StrepII tag, position not given here) [Sensor (2), recombinant fusion of cysteine-free GFP, a short linker, TEV protease site and non-amidated CGRP]
Log(EC50), Cleaved [1]: −6.0 | Log(EC50), Uncleaved [1]: <−5
